US9771334B2, “Triketone compound and preparation method and use thereof” (SHANDONG CYNDA CHEMICAL CO., LTD., priority 2013, dated 2017)

Tests used:
Assay type in all cases: in vivo
[1] = test system: abutilon theophrasti; assay: Herbicidal activity, pot culture method (primary and secondary screening test); conditions: sprayed at 3-leaf stage; for inhibition ratio, Abutilon theophrasti: investigated 15 days later; for herbicidal activity inhibition ratio (%), Abutilon theophrasti: primary screening, pot culture, 150 g/ha, result 15 days later
Procedure, shortened: (§1)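 Weeds were sown in 1:2 garden soil:seedling matrix and sprayed at the 3-leaf stage by automatic spray tower. Compounds were dissolved in DMF and diluted in water to 0.2 g/L, dosed at 150 g/ha; the secondary screen used a reduced dose. Inhibition ratio (%) was assessed after 15 days in the greenhouse.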

[2] = test system: amaranthus retroflexus; assay: as above; conditions: sprayed at 3-leaf stage; for inhibition ratio, Amaranthus retroflexus: investigated 15 days later; for herbicidal activity inhibition ratio (%), Amaranthus retroflexus: primary screening, pot culture, 150 g/ha, result 15 days later
Procedure, shortened: as §1

[3] = test system: digitaria sanguinalis; assay: as above; conditions: sprayed at 3-leaf stage; for inhibition ratio, Digitaria sanguinalis: investigated 15 days later; for herbicidal activity inhibition ratio (%), Digitaria sanguinalis: primary screening, pot culture, 150 g/ha, result 15 days later
Procedure, shortened: as §1

[4] = test system: echinochloa crusgalli; assay: as above; conditions: sprayed at 3-leaf stage; for inhibition ratio, Echinochloa crusgalli: investigated 15 days later; for herbicidal activity inhibition ratio (%), Echinochloa crusgalli: primary screening, pot culture, 150 g/ha, result 15 days later
Procedure, shortened: as §1

[5] = test system: eclipta prostrata; assay: as above; conditions: sprayed at 3-leaf stage; for inhibition ratio, Eclipta prostrata: investigated 15 days later; for herbicidal activity inhibition ratio (%), Eclipta prostrata: primary screening, pot culture, 150 g/ha, result 15 days later
Procedure, shortened: as §1

[6] = test system: setaria viridis; assay: as above; conditions: for inhibition ratio, Setaria viridis / herbicidal activity inhibition ratio (%), Setaria viridis: sprayed at 3-leaf stage; for inhibition ratio, Setaria viridis: investigated 15 days later; for herbicidal activity inhibition ratio (%), Setaria viridis: primary screening, pot culture, 150 g/ha, result 15 days later
Procedure, shortened: as §1

[7] = test system: maize; assay: Crop safety test (pot culture method); conditions: for inhibition ratio, Maize (crop safety): plants with about 4-5 leaves, investigated 15 days later
Text: (§2) This test example is for describing crop safety of the compound with a structure shown in Formula (1). Crop safety test method (pot culture method): The test targets are wheat and maize. Take flowerpots with an inner diameter of 12 cm, put composite soil (vegetable garden soil:seedling matrix=1:2, v/v) into them till ¾ of flowerpot height, directly sow the crop seeds (budding rate>85%), cover them with 0.2 cm thick soil, and keep the plants for future use when they grow to have about 4-5 leaves. Each compound is dissolved in N,N-dimethylformamide at doses of 75 g/ha or 150 g/ha and diluted with distilled water containing 0.1% tween-80 emulsifier to form 0.1 g/L (75 g/ha) solution and 0.2 g/L (150 g/ha) solution respectively. The solutions are sprayed through an automatic spray tower. After the solutions on weed leaves are dried in the air, the flowerpots are moved into a greenhouse for cultivation. The result is investigated 15 days later.

[8] = test system: wheat; assay: Crop safety test (pot culture method); conditions: plants with about 4-5 leaves, investigated 15 days later
Text: as §2

SMILES | inhibition ratio, Abutilon theophrasti ([1]; dose 37.5 g/ha) [%] | inhibition ratio, Abutilon theophrasti ([1]; dose 75 g/ha) [%] | herbicidal activity inhibition ratio (%), Abutilon theophrasti [1] [%] | inhibition ratio, Amaranthus retroflexus ([2]; dose 37.5 g/ha) [%] | inhibition ratio, Amaranthus retroflexus ([2]; dose 75 g/ha) [%] | herbicidal activity inhibition ratio (%), Amaranthus retroflexus [2] [%] | inhibition ratio, Digitaria sanguinalis ([3]; dose 37.5 g/ha) [%] | inhibition ratio, Digitaria sanguinalis ([3]; dose 75 g/ha) [%] | herbicidal activity inhibition ratio (%), Digitaria sanguinalis [3] [%] | inhibition ratio, Echinochloa crusgalli ([4]; dose 37.5 g/ha) [%] | inhibition ratio, Echinochloa crusgalli ([4]; dose 75 g/ha) [%] | herbicidal activity inhibition ratio (%), Echinochloa crusgalli [4] [%] | inhibition ratio, Eclipta prostrata ([5]; dose 37.5 g/ha) [%] | inhibition ratio, Eclipta prostrata ([5]; dose 75 g/ha) [%] | inhibition ratio, Setaria viridis ([6]; dose 37.5 g/ha) [%] | inhibition ratio, Setaria viridis ([6]; dose 75 g/ha) [%] | inhibition ratio, Maize (crop safety) ([7]; dose 75 g/ha) [%] | inhibition ratio, Maize (crop safety) ([7]; dose 150 g/ha) [%] | inhibition ratio, Wheat (crop safety) ([8]; dose 75 g/ha) [%] | inhibition ratio, Wheat (crop safety) ([8]; dose 150 g/ha) [%] | also measured
CCn1c(=O)n(-c2ccccc2C)c(=O)c2cc(C(=O)C3=C(O)CCCC3=O)ccc21 [Compound 66] | 100 | 100 | 100 | 90 | 100 | 93 | 60 | 97.5 | 95 | 100 | 100 | 100 | 95 | 100 | 97.5 | 100 | 0 | 5 | 0 | 10 | herbicidal activity inhibition ratio (%), Eclipta prostrata [5]: 95%; herbicidal activity inhibition ratio (%), Setaria viridis [6]: 100%
Cc1ccccc1-n1c(=O)c2cc(C(=O)C3=C(O)CCCC3=O)ccc2n(C)c1=O [Compound 20] | 30 | 85 | 100 | 50 | 60 | 100 | 40 | 70 | 100 | 50 | 60 | 100 | 50 | 50 | 50 | 70 | 0 | 15 | 0 | 0 | herbicidal activity inhibition ratio (%), Eclipta prostrata [5]: 95%; herbicidal activity inhibition ratio (%), Setaria viridis [6]: 100%
Cc1cccc(C)c1-n1c(=O)c2cc(C(=O)C3=C(O)CCCC3=O)ccc2n(C)c1=O [Compound 34] | 30 | 50 | 90 | 100 | 100 | 100 | 55 | 75 | 83 | 65 | 80 | 90 | 30 | 50 | 70 | 78 | 0 | 0 | 0 | 5 | herbicidal activity inhibition ratio (%), Eclipta prostrata [5]: 80%; herbicidal activity inhibition ratio (%), Setaria viridis [6]: 80%; safety to maize fields (in words) ([7]; dose 150 g/ha): highly safe
Cn1c(=O)n(-c2cccc(Br)c2)c(=O)c2cc(C(=O)C3=C(O)CCCC3=O)ccc21 [Compound 23] | 100 | 100 | 85 | 100 | 100 | 95 | 20 | 65 | 30 | 20 | 20 | 85 | 100 | 100 | 30 | 50 | 0 | 0 | 0 | 5 | herbicidal activity inhibition ratio (%), Eclipta prostrata [5]: 50%; herbicidal activity inhibition ratio (%), Setaria viridis [6]: 45%; safety to maize fields (in words) ([7]; dose 150 g/ha): highly safe
Cc1ccccc1-n1c(=O)c2cc(C(=O)C3=C(O)CC(C)(C)CC3=O)ccc2n(C)c1=O [Compound 21] | 70 | 100 | 85 | 80 | 90 | 100 | 70 | 75 | 85 | 70 | 75 | 85 | 40 | 50 | 70 | 75 | 0 | 15 | 0 | 0 | herbicidal activity inhibition ratio (%), Eclipta prostrata [5]: 95%; herbicidal activity inhibition ratio (%), Setaria viridis [6]: 100%
CS(=O)(=O)c1ccc(C(=O)C2C(=O)CCCC2=O)c([N+](=O)[O-])c1 [Mesotrione, mesotrione, reference compound] | 100 | 100 | – | 70 | 75 | – | 40 | 70 | – | 50 | 70 | – | 75 | 85 | 0 | 0 | 7 | 15 | 10 | 40 | prevention and control of setaria viridis (in words) ([6]; secondary screening, 37.5 and 75 g/ha): cannot be prevented and controlled
Cn1c(=O)n(-c2ccccc2Cl)c(=O)c2cc(C(=O)C3=C(O)CC(C)(C)CC3=O)ccc21 [Compound 6] | 70 | 70 | 100 | 70 | 75 | 80 | 60 | 70 | 75 | 70 | 75 | 80 | 70 | 70 | 60 | 60 | 0 | 15 | 0 | 0 | herbicidal activity inhibition ratio (%), Eclipta prostrata [5]: 85%; herbicidal activity inhibition ratio (%), Setaria viridis [6]: 90%
